“And” between values parts separate entries of the source, which are not always exact repeats. Equal values may be shown once. Where a name gives a salt, the structure may show the parent alone.
Tested on: 5-HIAA release in the rat prefrontal cortex
Assay: Microdialysis: 5-HIAA release in prefrontal cortex after I.P. administration
Type: in vivo
Details: for 5-HIAA (% of respective basal), individual animal: 0.1 mg/kg I.P., c2-c9 = R#13,14,20,19,25,26,31,32; for 5-HIAA (% of respective basal), individual animal / 5-HIAA release, individual animals: hydrochloride; for 5-HIAA release, MEAN / 5-HIAA release, individual animals: 0.3 mg/kg I.P.; for 5-HIAA release, MEAN: n = 8; for 5-HIAA release, individual animals: one column per animal R#11,12,18,23,29,30,17,24
Experimental: The aim of the study was to evaluate, using microdialysis, the effects of an intraperitoneal (I.P.) administration in rats of three different doses of SON-117 on dopamine and its metabolites, serotonin and its metabolite (5-HIAA), and norepinephrine levels in prefrontal cortex.
Thirty-two adult male Wistar rats were used for the whole study (4 groups of eight animals planned for the study, Table 1).
Surgery was performed on rats weighing about 300 g at the beginning of the experiments. Rats were anaesthetized with Ketamine (50 mg/kg) & Xylazine (15 mg/kg) by intramuscular administration. The animals were placed in a stereotaxic apparatus in the flat-skull position at a constant setting of −3.3 mm between ear bars and the incisor bar. The animals were treated with a local anesthesic (xylocaine 1%, Astra Zeneca) and an analgesic (Temgesic, from Schering Plough, 0.05 mg/kg, s.c.). A rostrocaudal midline incision was made with a lancet to expose the dorsal skull surface. The “stereotaxic zero” was defined by the Bregma in accordance with Paxinos and Watson's atlas (1986). A hole was drilled in the skull with a drill and the meninges were pierced with a sterile needle to implant a CMA12 guide cannula which later received the dialysis probe.
Coordinates used for implanting guide cannula in prefrontal cortex from Bregma were anteroposterior 3.7 mm, mediolateral 0.8 mm, and dorsoventral −2 mm (top of the probe was at −5 mm). The guide cannula was fixed to the skull with two stainless steel screws (1.88 mm outside diameter) anchored. An application of dental cement was added. A plastic collar allowed each animal to be tethered to a Swivel assembly of the CMA 120 awake animal system. Following surgery, rats were kept in individual cages and allowed to recover for a minimum of 3-5 days before the experimentation. The rats were handled and put in plastic bowl for 10 min at least every day to habituate the animals to their new environment for the dialysis. An I.P. administration with saline was also performed every day.
Dialysis probes (CMA12/3 mm, membrane, 20 kD cut-off, Carnegie Medicine, Stockholm, Sweden), were carefully washed before inserting into the guide cannula. The wash was performed with the artificial cerebrospinal fluid (aCSF) medium (NaCl 147 mM, KCl 2.7 mM, CaCl2 1.2 mM, MgCl2 0.85 mM) at room temperature. The dialysis system was then equilibrated at 20° C. at a perfusion rate of 1 μl/min with a Carnegie pump (CMA100). All catheters (FEP tubing, internal volume of 1.2 μl/10 cm, and tubing adaptors) used for microdialysis were treated in the same conditions.
The probes duly prepared were inserted into the guide cannula and the CMA120 Swivel assembly secured to the animal using a plastic collar. Flow through the dialysis probe with aCSF was maintained at a rate of 1 μl/min during the whole experimentation. The first four fractions (corresponding to 2 hours) were discarded to avoid the effects of parenchymal disturbance and to ensure that an approximate steady-state level was reached. Fractions were then collected over a period of 8.5 h during which time the animals remained quiet. The dialysates were automatically collected with an autosampler (microfraction collector CMA 140, Carnegie Medicin) and stored at −80° C. until analysis. […] Perfusion was then maintained for 7 hours with aCSF. The dialysates (30 μl) were collected into 300 μl vials, transferred into dry ice and then kept frozen (−80° C.) until analysis. Frozen samples were shipped to a partner for analysis. At the end of the microdialysis study, a PBS with colored ink was perfused through the probe in order to visualize the dialyzed area.
Catecholamine assay: Concentrations of dopamine, DOPAC, HVA, 5-HIAA, 5-HT, and norepinephrin were determined for each sample by HPLC coupled with electrochemical detection.

Cc1nnc(-c2cc3c(OC[C@@H](O)CN4CCC(c5ccc(Cl)c(Cl)c5)CC4)cccc3o2)o1 [SON-117, (S)-1-(4-(3,4-dichlorophenyl)piperidino)-3-(2-(5-methyl-1,3,4-oxadiazol-2-yl)benzo(b)furan-4-yloxy)-2-propanol hydrochloride]
5-HIAA (% of respective basal), individual animal (T30-T1 h): 123.49 % of respective basal and 103.49 % of respective basal and 107.39 % of respective basal and 112.69 % of respective basal and 111.19 % of respective basal and 139.2 % of respective basal and 117.52 % of respective basal and 104.09 % of respective basal
5-HIAA (% of respective basal), individual animal (T1 h 30-T2 h): 92.61 % of respective basal and 104.00 % of respective basal and 73.42 % of respective basal and 136.95 % of respective basal and 121.36 % of respective basal and 90.88 % of respective basal and 109.96 % of respective basal and 88.3 % of respective basal
5-HIAA (% of respective basal), individual animal (T1 h-T1 h 30): 133.03 % of respective basal and 136.32 % of respective basal and 86.58 % of respective basal and 118.45 % of respective basal and 137.53 % of respective basal and 136.04 % of respective basal and 114.03 % of respective basal and 94.61 % of respective basal
5-HIAA (% of respective basal), individual animal (T2 h 30-T3 h): 85.72 % of respective basal and 87.35 % of respective basal and 46.33 % of respective basal and 101.63 % of respective basal and 145.61 % of respective basal and 142.25 % of respective basal and 116.28 % of respective basal and 27.66 % of respective basal
5-HIAA (% of respective basal), individual animal (T2 h-T2 h 30): 100.99 % of respective basal and 85.23 % of respective basal and 60.74 % of respective basal and 101.82 % of respective basal and 125.47 % of respective basal and 100.57 % of respective basal and 111.12 % of respective basal and 50.78 % of respective basal
5-HIAA (% of respective basal), individual animal (T3 h 30-T4 h): 85.88 % of respective basal and 94.27 % of respective basal and 31.74 % of respective basal and 96.48 % of respective basal and 188.3 % of respective basal and 137.13 % of respective basal and 101.46 % of respective basal and 21.73 % of respective basal
5-HIAA (% of respective basal), individual animal (T3 h-T3 h 30): 129.21 % of respective basal and 80.95 % of respective basal and 41.77 % of respective basal and 96.17 % of respective basal and 133.55 % of respective basal and 113.01 % of respective basal and 113.45 % of respective basal and 29.04 % of respective basal
5-HIAA (% of respective basal), individual animal (T4 h 30-T5 h): 135.57 % of respective basal and 84.63 % of respective basal and 82.26 % of respective basal and 21.52 % of respective basal and 127.36 % of respective basal and 130.30 % of respective basal and 108.83 % of respective basal and 86.42 % of respective basal
5-HIAA (% of respective basal), individual animal (T4 h-T4 h 30): 155.28 % of respective basal and 81.87 % of respective basal and 29.82 % of respective basal and 104.10 % of respective basal and 154.95 % of respective basal and 128.712 % of respective basal and 116.56 % of respective basal and 100.63 % of respective basal
5-HIAA (% of respective basal), individual animal (T5 h 30-T6 h): 139.17 % of respective basal and 82.04 % of respective basal and 19.18 % of respective basal and 72.04 % of respective basal and 120.26 % of respective basal and 106.59 % of respective basal and 103.65 % of respective basal and 79.99 % of respective basal
5-HIAA (% of respective basal), individual animal (T5 h-T5 h 30): 141.25 % of respective basal and 94.73 % of respective basal and 20.29 % of respective basal and 84.33 % of respective basal and 123.82 % of respective basal and 104.61 % of respective basal and 111.73 % of respective basal and 87.84 % of respective basal
5-HIAA (% of respective basal), individual animal (T6 h 30-T7 h): 142.73 % of respective basal and 92.55 % of respective basal and 23.25 % of respective basal and 79.21 % of respective basal
5-HIAA (% of respective basal), individual animal (T6 h-T6 h 30): 150.15 % of respective basal and 87.80 % of respective basal and 10.87 % of respective basal and 82.34 % of respective basal and 124.74 % of respective basal and 107.55 % of respective basal and 96.41 % of respective basal and 77.86 % of respective basal
5-HIAA release, MEAN (T0-T30 min): 103.44 % of respective basal
5-HIAA release, MEAN (T30-T1 h): 100.34 % of respective basal
5-HIAA release, individual animals (T30-T1 h): 98.98 % of respective basal and 79.36 % of respective basal and 110.17 % of respective basal and 105.67 % of respective basal and 80.63 % of respective basal and 95.45 % of respective basal and 117.90 % of respective basal and 114.56 % of respective basal
5-HIAA release, MEAN (T1 h 30-T2 h): 92.27 % of respective basal
5-HIAA release, individual animals (T1 h 30-T2 h): 107.81 % of respective basal and 80.74 % of respective basal and 99.11 % of respective basal and 100.15 % of respective basal and 74.98 % of respective basal and 49.45 % of respective basal and 122.26 % of respective basal and 103.65 % of respective basal
5-HIAA release, MEAN (T1 h-T1 h 30): 98.46 % of respective basal
5-HIAA release, individual animals (T1 h-T1 h 30): 102.59 % of respective basal and 87.99 % of respective basal and 119.49 % of respective basal and 107.50 % of respective basal and 64.53 % of respective basal and 82.55 % of respective basal and 108.28 % of respective basal and 114.78 % of respective basal
5-HIAA release, MEAN (T2 h 30-T3 h): 88.58 % of respective basal
5-HIAA release, individual animals (T2 h 30-T3 h): 90.73 % of respective basal and 88.56 % of respective basal and 94.96 % of respective basal and 87.45 % of respective basal and 59.92 % of respective basal and 79.89 % of respective basal and 107.14 % of respective basal and 99.98 % of respective basal
5-HIAA release, MEAN (T2 h-T2 h 30): 88.16 % of respective basal
5-HIAA release, individual animals (T2 h-T2 h 30): 82.87 % of respective basal and 87.22 % of respective basal and 100.63 % of respective basal and 93.66 % of respective basal and 63.67 % of respective basal and 70.87 % of respective basal and 109.73 % of respective basal and 96.64 % of respective basal

From patent publication US20250109127A1, “METHODS OF USE OF PHENOXYPROPYLAMINE COMPOUNDS TO TREAT DEPRESSION” (Minerva Neurosciences, Inc., priority 2013, published 2025)
